From US20200054682A1, “METHODS AND COMPOSITIONS FOR TREATING MITOCHONDRIAL DISEASE OR DISORDERS AND HETEROPLASMY” (Imel Biotherapeutics, Inc., priority 2018, published 2020)
“Also recorded” adds a separate entry of the source.

Assays:
[1] = system: mtDNA; test: mtDNA copy number by qPCR, MTS-XbaIR versus EtBr, in EPC100 cells; format: cell-based, human; settings: qPCR relative to Actb, EtBr 50 ng/mL, untreated cells 6189.6867
Description: The efficiency and efficacy of the MTS-XbaIR expression vector relative to the conventional method that employs ethidium bromide (EtBr) was evaluated according to the scheme illustrated in FIG. 2A. The placental venous endothelium-derived cell line EPC100 with DsRed labeled mitochondria were cultured in pyruvate-free DMEM (Wako cat #044-29765) with 10% fetal bovine serum (FBS) and 1% penicillin/streptomycin (P/S), and at day 0 the cells were either untreated (“normal”), transfected with the MTS-XbaIR expression vector (“MTS-XbaIR”), or treated with 50 ng/mL of EtBr. At day 1, the cells were cultured in DMEM with 10% FBS, and 1% P/S supplemented with 100 μg/mL pyruvate and 50 μg/mL uridine. […] Cells with this partial reduction of mtDNA were termed as ρ(−) cells.

[2] = system: NHDF recipient cells; test: engulfment of DsRed-labeled exogenous mitochondria by FACS with rapamycin or palmitic acid; format: cell-based, human; settings: ρ(−) NHDF cells; rapamycin 50 ng/ml, palmitic acid 50 μM; FACS day 8
Description: Rapamycin was added into the culture media at the concentration of 50 ng/ml for 24 hours, and cells were exposed to glucose and essential amino acids free media without serum for 1 hour to simulate starvation. […] The ratio of phosphorylated AMPK to AMPK and phosphorylated p70 S6 kinase to p70 S6 kinase, which is a downstream target of mTORC1, were examined by using capillary electrophoresis, Wes™ (Protein Simple).
Next, we examined the effects of rapamycin and palmitic acid upon mitochondria engulfment by treating the cells with rapamycin or palmitic acid simultaneously during the mitochondria co-cultivation. A scheme of the protocol is illustrated in FIG. 6I. Briefly, the NHDF recipient cells were transfected with the MTS-XbaI expression vector and cultured with or without rapamycin, or with or without palmitic acid (PA). Puromycin selection for ρ(−) cells expressing the MTS-XbaI was performed after 48 hours. On day 6, transfer of isolated mitochondria marked with DsRed from EPC100 cells was performed. On Day8, FACS analyses were performed to detect the donor mitochondria by measuring DsRed expression in the NHDF recipient cells.

Row | SMILES | mtDNA copy number [1] | engulfment of DsRed-labeled isolated exogenous mitochondria [2]
1 | CC[n+]1c(-c2ccccc2)c2cc(N)ccc2c2ccc(N)cc21 [EtBr, ethidium bromide] | 5169.1258 | 
2 | CCCCCCCCCCCCCCCC(=O)O [palmitic acid] |  | decreased; also recorded: clearly suppressed
